This is an account of results in US20240279202A1 (NURIX THERAPEUTICS, INC., priority 2021, published 2024).

Data set [1] can be described thus: Mouse PK analysis (blood/plasma concentration after oral administration). It counts as in vivo. The settings on record: mouse, mice. The protocol:
Compounds 1, 3, 7, and 42 were formulated and administered at 90 mg/kg to mice by oral gavage (PO). Blood was collected at defined time points (after 1, 2, and 6 hours) after compounds administration to determine PK parameters. Concentration increased through 6 hours. Six hours later mice were sacrificed and splenocytes were isolated and used to prepare protein lysates. Total protein levels were determined in the lysates using the BCA assay according to standard methods. Equal amounts of protein were then analyzed by Western blot to determine the level of ITK expression in each sample. ITK band intensities were measured using Alpha View software and the percent of ITK remaining in each test animal was determined relative to the mean of ITK levels in vehicle control samples.
Compounds 16, 17, and 18 were administered to mice orally. After 6 hours or 24 hours, splenocytes cells were harvested. ITK was evaluated by Western blotting. Plasma concentrations were determined by LC/MS/MS. Plasma samples were protein precipitated by addition of 100 μl of acetonitrile containing 50 ng/ml of internal standard. The resulting mixture was vortexed and centrifuged at 4000 RPM for 5 minutes. An aliquot of the resultant supernatant (75 μl) was added to 75 μl of 0.1% formic acid in water to constitute the final sample for injection. Samples were injected on a Shimadzu Exion LC Binary Gradient AD Pump HLPC system connected to a Sciex QTRAP 6500+mass spectrometer. Five μl of sample was injected onto a Waters Acquity UPLC BEH C18 column 130A (2.1×30 mm, […]) at 40° C. utilizing a flow rate of 700 μl/minute. Mobile Phase A was 0.1% formic acid in water and mobile phase B was 0.1% formic acid in acetonitrile. A linear gradient of 15-95% B over 1.0 minute was used. The mass spectrometer was operated in positive ion electrospray mode with multiple reaction monitoring for maximum sensitivity. Sciex Analyst software (version 1.6.3) was used for LC/MS/MS instrument control and acquisition. Compound concentration was determined against a standard curve of internal standard versus compound peak area ratio. Noncompartmental PK parameters were determined using […] software (version 8.2.0.4383) from Certara. Plasma concentrations from the LC/MS/MS analyses, dose, route of administration, and desired units were utilized for PK parameter calculations. […] FIG. 4C provides the concentration over time of compound 17 following in vivo oral administration in the 6 hour and 24 hour assays.
Cmax, Tmax and AUClast were all calculated using a WinNonLin Phoenix 64 v 8.2.0.4383. Using non-compartmental analysis, Tmax, Cmax and AUClast were determined as follows: • Tmax—Time of maximum observed concentration. • Cmax—Maximum observed concentration, occurring at time Tmax, as defined above. • AUClast—Area under the curve from the time of dosing to the time of the last measurable (positive) concentration (Tlast).

The target in the next data set is T1, ITK (Homo sapiens, UniProt Q08881).
T1 sequence (Q08881 1-620): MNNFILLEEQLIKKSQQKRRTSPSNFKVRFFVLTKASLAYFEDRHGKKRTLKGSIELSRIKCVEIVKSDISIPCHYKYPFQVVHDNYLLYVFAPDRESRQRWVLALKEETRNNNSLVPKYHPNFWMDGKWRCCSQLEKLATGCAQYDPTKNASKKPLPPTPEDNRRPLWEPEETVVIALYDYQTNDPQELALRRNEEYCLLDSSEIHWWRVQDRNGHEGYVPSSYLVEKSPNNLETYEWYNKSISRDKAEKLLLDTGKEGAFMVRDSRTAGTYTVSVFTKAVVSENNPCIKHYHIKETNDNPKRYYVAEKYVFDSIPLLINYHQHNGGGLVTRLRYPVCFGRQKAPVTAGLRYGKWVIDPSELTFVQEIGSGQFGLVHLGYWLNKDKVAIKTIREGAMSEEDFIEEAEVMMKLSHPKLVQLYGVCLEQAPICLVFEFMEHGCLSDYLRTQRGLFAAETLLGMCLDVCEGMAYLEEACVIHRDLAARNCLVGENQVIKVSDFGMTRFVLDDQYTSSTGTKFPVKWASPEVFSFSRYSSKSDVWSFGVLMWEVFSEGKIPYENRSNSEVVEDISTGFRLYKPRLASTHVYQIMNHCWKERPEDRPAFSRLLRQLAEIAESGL
As to the kind of experiment: ITK degradation HiBiT assay. It counts as cell-based. More on the design: expressed in transfected cells; host or cells: Molt4 (ATCC CRL-1552), monoclonal clone 1C10, engineered to carry the HiBiT tag. The following applies: 4 hrs; for DC50: C-terminal HiBiT-tagged Molt4 cells; for Dmax: MOLT-4, C-terminal HiBiT-tagged Molt4 cells. The method, boiled down: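 C-terminal HiBiT-tagged Molt4 cells (clone 1C10) treated 4 h at 32° C with an 11-point, 5-fold compound dilution series (0.5% DMSO). HiBiT lytic detection with LgBiT then luminescence read; % ITK remaining versus concentration fit by four-parameter variable-slope model to give DC50 and Dmax.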
(In general: HiBiT is a short tag that completes a luciferase, so light tracks the accessible tagged protein.)

Setting [2] is: plasma, oral, 90 mg/kg, 1 h, read-out: Cal. Conc. Total (μM) 1 h.
The mark [3] stands for this setting: plasma, oral, 90 mg/kg, 2 h, read-out: Cal. Conc. Total (μM) 2 h.
Where [4] appears, read: plasma, oral, 90 mg/kg, 6 h, read-out: Cal. Conc. Total (μM) 6 h.

Where two headings read alike, the source gives them in different places.

A word on the AUC(0-t): it is exposure summed from dosing to a finite time, without extrapolation to infinity. For orientation: Cmax means the maximum level reached in the sampled fluid or tissue. The term Tmax denotes the time at which the peak concentration occurs. One may read the DC50 as the concentration giving 50% degradation. A lower DC50 goes with a more potent degrader. As a reminder, the Dmax is the largest share of the target that was removed. A low value points to a partial loss of target. As to `CN(c1ccc2cc(-c3n[nH]c4c3C[C@@H]3C(F)(F)[C@]3(C)C4)[nH]c2c1)C(=O)[C@H]1C[C@]2(CCN(c3ccc4c(c3)C(=O)N([C@H]3CCC(=O)NC3=O)C4=O)C2)C1` (racemic) [Compound 71b, (2s,4s)-N-[2-[(4aS,5aR)-5,5-difluoro-5a-methyl-1H,4H,4aH,6H-cyclopropa[f]indazol-3-yl]-1H-indol-6-yl]-6-[2-[(3RS)-2,6-dioxopiperidin-3-yl]-1,3-dioxoisoindol-5-yl]-N-methyl-6-azaspiro[3.4]octane-2-carboxamide], in data set [1] (oral, plasma), the AUC(0-t) was 0.78 µM·h, the Cmax was found to be 223 nM and the Tmax amounted to 1.5 h. For the same molecule, at ITK, the DC50 was 2 nM and the Dmax was 85%.

Regarding `CN(C(=O)CCC1CCN(c2ccc3c(c2)C(=O)N(C2CCC(=O)NC2=O)C3=O)C1)c1ccc2cc(-c3n[nH]c4c3CCC(C)(C)C4)[nH]c2c1` (stereo not shown) [Compound 1, N-(2-(6,6-dimethyl-4,5,6,7-tetrahydro-1H-indazol-3-yl)-1H-indol-6-yl)-3-(1-(2-(2,6-dioxopiperidin-3-yl)-1,3-dioxoisoindolin-5-yl)pyrrolidin-3-yl)-N-methylpropanamide], the concentration at 1 h in data set [1] (setting [2]) came to 1.6 µM. Also, the concentration at 2 h in data set [1] (setting [3]) is 1.7 µM. Moreover, the concentration at 6 h in data set [1] (setting [4]) was found to be 0.7 µM. At ITK, this molecule gave a half-maximal degradation concentration (DC50) of 10.4 nM and a Dmax of 88%.

Consider `CN(C(=O)CCN1CCN(c2ccc3c(c2)C(=O)N(C2CCC(=O)NC2=O)C3=O)CC1)c1ccc2cc(-c3n[nH]c4c3CCC(C)(C)C4)[nH]c2c1` (stereo not shown) [Compound 2, N-(2-(6,6-dimethyl-4,5,6,7-tetrahydro-1H-indazol-3-yl)-1H-indol-6-yl)-3-(4-(2-(2,6-dioxopiperidin-3-yl)-1,3-dioxoisoindolin-5-yl)piperazin-1-yl)-N-methylpropanamide], for which, in data set [1] (setting [2]), the concentration at 1 h was found to be 0.041 µM. For the same molecule, the concentration at 2 h in data set [1] (setting [3]) stood at 0.039 µM. For the same molecule, the concentration at 6 h in data set [1] (setting [4]) came to 0.059 µM. Moreover, at ITK, it took 4.4 nM to reach half-maximal degradation (DC50) and the Dmax came out at 90%.

As to `C[C@@H](C(=O)N(C)c1ccc2cc(-c3n[nH]c4c3CCC(C)(C)C4)[nH]c2c1)N1CCN(CC2CCN(c3cccc4c3n(C)c(=O)n4C3CCC(=O)NC3=O)CC2)CC1` (stereo partly drawn) [Compound 3, (2S)—N-(2-(6,6-dimethyl-4,5,6,7-tetrahydro-1H-indazol-3-yl)-1H-indol-6-yl)-2-(4-((1-(1-(2,6-dioxopiperidin-3-yl)-3-methyl-2-oxo-2,3-dihydro-1H-benzo[d]imidazol-4-yl)piperidin-4-yl)methyl)piperazin-1-yl)-N-methylpropanamide], the concentration at 1 h in data set [1] (90 mg/kg PO, blood, timepoint 1 h, read-out: Concentration (μM), mean calculated) was 0.228 µM. In addition, the concentration at 2 h in data set [1] (90 mg/kg PO, blood, timepoint 2 h, read-out: Concentration (μM), mean calculated) was 0.702 µM. Besides, the concentration at 6 h in data set [1] (90 mg/kg PO, blood, timepoint 6 h, read-out: Concentration (μM), mean calculated) is 2.71 µM. For the same molecule, in data set [1] (oral, plasma), the exposure AUC(0-t) amounted to 1.99 µM·h, the highest level (Cmax) was 471 nM and the Tmax amounted to 4 h. Also, at ITK, it took 0.29 nM to reach half-maximal degradation (DC50) and the Dmax is 76%.

For the molecule `C[C@@H](C(=O)N(C)c1ccc2cc(-c3n[nH]c4c3CCC(C)(C)C4)[nH]c2c1)N1CCN(C[C@@H]2CCN(c3ccc4c(c3)n(C)c(=O)n4C3CCC(=O)NC3=O)C2)CC1` (stereo partly drawn) [Compound 4, (2S)—N-(2-(6,6-dimethyl-4,5,6,7-tetrahydro-1H-indazol-3-yl)-1H-indol-6-yl)-2-(4-(((3S)-1-(1-(2,6-dioxopiperidin-3-yl)-3-methyl-2-oxo-2,3-dihydro-1H-benzo[d]imidazol-5-yl)pyrrolidin-3-yl)methyl)piperazin-1-yl)-N-methylpropanamide], in data set [1] (oral, plasma), the AUC(0-t) is 0.54 µM·h, the maximum concentration (Cmax) is 127 nM and the time to peak (Tmax) turned out to be 2 h. Besides, on ITK, it took 2.3 nM to reach half-maximal degradation (DC50) and the greatest degradation seen (Dmax) is 64%.

Turning to `C[C@@H](C(=O)N(C)c1ccc2cc(-c3n[nH]c4c3CCC(C)(C)C4)[nH]c2c1)N1CCN(C[C@H]2CCN(c3ccc4c(c3)n(C)c(=O)n4C3CCC(=O)NC3=O)C2)CC1` (stereo partly drawn) [Compound 5, (2S)—N-(2-(6,6-dimethyl-4,5,6,7-tetrahydro-1H-indazol-3-yl)-1H-indol-6-yl)-2-(4-(((3R)-1-(1-(2,6-dioxopiperidin-3-yl)-3-methyl-2-oxo-2,3-dihydro-1H-benzo[d]imidazol-5-yl)pyrrolidin-3-yl)methyl)piperazin-1-yl)-N-methylpropanamide], in data set [1] (oral, plasma), the AUC(0-t) is 0.7 µM·h, the Cmax came out at 188 nM and the Tmax is 4 h. On ITK, the DC50 came to 1.3 nM and the Dmax worked out at 74%.

Take `C[C@@H](C(=O)N(C)c1ccc2cc(-c3n[nH]c4c3CCC(C)(C)C4)[nH]c2c1)N1CCN(CC2CCN(c3ccc(C(=O)NC4CCC(=O)NC4=O)nc3)CC2)CC1` (stereo partly drawn) [Compound 7, 5-(4-((4-((S)-1-((2-(6,6-dimethyl-4,5,6,7-tetrahydro-1H-indazol-3-yl)-1H-indol-6-yl)(methyl)amino)-1-oxopropan-2-yl)piperazin-1-yl)methyl)piperidin-1-yl)-N-(2,6-dioxopiperidin-3-yl)picolinamide]: the concentration at 1 h in data set [1] (setting [2]) was 0.2 µM. Further, the concentration at 2 h in data set [1] (setting [3]) came out at 0.29 µM. Further, in data set [1] (setting [4]), the concentration at 6 h stood at 0.45 µM.

Consider `CN(C(=O)C1CN(C2CCN(c3ccc4c(c3)C(=O)N(C3CCC(=O)NC3=O)C4=O)CC2)C1)c1ccc2cc(-c3n[nH]c4c3CCC(C)(C)C4)[nH]c2c1` (stereo not shown) [Compound 35, N-(2-(6,6-dimethyl-4,5,6,7-tetrahydro-1H-indazol-3-yl)-1H-indol-6-yl)-1-(1-(2-(2,6-dioxopiperidin-3-yl)-1,3-dioxoisoindolin-5-yl)piperidin-4-yl)-N-methylazetidine-3-carboxamide], for which the concentration at 2 h in data set [1] (setting [3]) turned out to be 0.155 µM. In addition, the concentration at 6 h in data set [1] (setting [4]) turned out to be 0.053 µM.

As to `CN(C(=O)CC1CCN(CC2CCN(c3ccc(C(=O)NC4CCC(=O)NC4=O)nc3)CC2)CC1)c1ccc2cc(-c3n[nH]c4c3C[C@@H]3C(F)(F)[C@]3(C)C4)[nH]c2c1` (stereo partly drawn) [Compound 75, 5-(4-((4-(2-((2-((4aS,5aR)-5,5-difluoro-5a-methyl-1,4,4a,5,5a,6-hexahydrocyclopropa[f]indazol-3-yl)-1H-indol-6-yl)(methyl)amino)-2-oxoethyl)piperidin-1-yl)methyl)piperidin-1-yl)-N-(2,6-dioxopiperidin-3-yl)picolinamide], at ITK, it took 0.5 nM to reach half-maximal degradation (DC50) and the Dmax is 83%.
